Here are results for one compound from patent EP0955049B1, “6 Beta-Hydroxy - 6 alpha, 17 alpha - dimethylpregn - 4 - ene - 3,20 - dione, as an inhibitor of smooth muscle proliferation” (Wyeth, priority 1994, dated 1995).

The test deals with Primary rat aorta smooth muscle cell cultures. The test can be described thus: smooth muscle cell proliferation ([3H]-thymidine incorporation). The note with it: [3H]-thymidine (0.5 µCi/mL), 24 hours at 37°C, M 199 plus 10% fetal bovine serum, cells per well as percent of control. Format: cell-based. From the text: This utility was established by subjecting the compound to the following standard experimental test procedure:
Primary rat aorta smooth muscle cell cultures grown in media 199 (Gibco ) plus 10% fetal bovine serum (Gibco) were washed with calcium, magnesium free Dulbecco's phosphate buffered saline and trypsinized for five minutes. Cells were scraped from culture dishes with a rubber policeman and centrifuged. Cells were resuspended in M 199 plus 10% fetal bovine serum containing [^3H)-thymidine (0.5 µCi/mL) at 8-15,000 cells/mL, and were placed into plate wells. The novel intermediate was added to each well and the plates were incubated for 24 hours at 37°C. in a 5% CO2 atmosphere. The cultured cells were treated with trichloracetic acid to remove acid soluble proteins, leaving only cell superstructure and DNA. These cells were solubilized, counted by scintillation and the results compared with control to determine the number of cells per well, the difference in cells being expressed as a percent of control.
On the technique in general: Incorporation of labelled thymidine or its analogues reports DNA synthesis.

The term IC50 denotes the concentration needed to halve the response being measured. `CC(=O)[C@@]1(C)CC[C@H]2[C@@H]3C[C@@](C)(O)C4=CC(=O)CC[C@]4(C)[C@H]3CC[C@@]21C` [6β - Hydroxy - 6α,17α - dimethylpregn - 4 - ene - 3,20 - dione]: the half-inhibitory concentration (IC50) is 26.4 µM.
